Assay results published in EP1043318A1 (priority 1997, dated 1999).

Test system: M. tuberculosis 16R
Type: cell-based
Details: strain resistant to control preparations; concentration of the preparation 50.0 g/l (table title); incubated 30 days

SMILES	M. tuberculosis 16R growth
CC[C@@H](CO)NCCN[C@@H](CC)CO [Ethambutol]	growth
NNC(=O)c1ccncc1 [Isoniazid]	growth
[H]/N=C(/N)N[C@H]1[C@H](O)[C@@H](O)[C@H](O[C@@H]2O[C@@H](C)[C@](O)(C=O)[C@H]2O[C@@H]2O[C@@H](CO)[C@H](O)[C@@H](O)[C@@H]2NC)[C@@H](N/C(N)=N\[H])[C@@H]1O [Streptomycin]	growth
O=C1NC(=S)NC(=O)C1C(c1ccc([N+](=O)[O-])cc1)C1C(=O)NC(=S)NC1=O [X, 5,5'-(p-nitrobenzylidene)bis (2-thiobarbituric) acid]	complete suppression of growth
